Data taken from PMC8409088 (ChemistryOpen, 2020).
Counter-ions that a name gives are not always drawn.

Biological target: glutaminyl cyclase (QC, QPCT) (Homo sapiens, UniProt Q16769)
Assay: glutamic dehydrogenase-coupled assay, NADH absorbance at […] nm
Assay type: biochemical

Chain of glutaminyl cyclase (QC, QPCT) (Q16769 33-361): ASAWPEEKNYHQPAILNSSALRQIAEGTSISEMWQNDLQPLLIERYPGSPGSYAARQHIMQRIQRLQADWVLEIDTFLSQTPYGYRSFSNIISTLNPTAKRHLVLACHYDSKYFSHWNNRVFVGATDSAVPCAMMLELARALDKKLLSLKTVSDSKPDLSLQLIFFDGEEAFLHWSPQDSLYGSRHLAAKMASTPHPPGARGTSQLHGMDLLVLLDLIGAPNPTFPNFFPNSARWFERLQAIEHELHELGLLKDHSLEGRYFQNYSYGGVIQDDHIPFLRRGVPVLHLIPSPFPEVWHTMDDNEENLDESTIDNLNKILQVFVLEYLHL

Compound | Ki [mM]
Cc1cnc(C(=O)O)c[n+]1[O-] [Acipimox] | 6.23 ± 0.85
O=C(/C=C/c1cccc(S(=O)(=O)Nc2ccccc2)c1)NO [Belinostat (PXD101)] | 2.98 ± 0.67
Cc1cccc(Cc2c[nH]cn2)c1C [Detomidine HCl] | 2.58 ± 0.28
CC[C@@H]1C(=O)OC[C@@H]1Cc1cncn1C [Pilocarpine HCl] | 13.2 ± 7.27
